Columns and labels:
MK-2206 = compound: NC1(c2ccc(-c3nc4ccn5c(=O)[nH]nc5c4cc3-c3ccccc3)cc2)CCC1 [MK-2206]; settings: max 10 µM
Summary of the method: (§1)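 Cancer cell lines were plated in 1536-well plates in 7.5 μl of DMEM/F12 or RPMI with 10% FBS and kept 24 hours at 37°C and 5% CO2 before 72 hours of dosing, with final DMSO typically 0.2%. CellTiter-Glo 2.0 luminescence measured viability, scaled between blank-well and DMSO-well means. Dose responses were fitted to a two-parameter logistic curve with a non-linear mixed effects model. This fit gives the single-agent IC50.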

AZD2811 = compound: CCN(CCO)CCCOc1ccc2c(Nc3cc(CC(=O)Nc4cccc(F)c4)[nH]n3)ncnc2c1 [AZD2811]; settings: max 1 µM
Summary of the method: as §1

AZD5991 = compound: Cc1c2c(nn1C)CSCc1cc(n(C)n1)CSc1cc(c3ccccc3c1)OCCCc1c(C(=O)O)n(C)c3c-2c(Cl)ccc13 [AZD5991]; settings: max 1 µM
Summary of the method: as §1

Gefitinib = compound: COc1cc2ncnc(Nc3ccc(F)c(Cl)c3)c2cc1OCCCN1CCOCC1 [Gefitinib]; settings: max 10 µM
Summary of the method: as §1

AZD5153 = compound: COc1nnc2ccc(N3CCC(c4ccc(OCCN5CCN(C)C(=O)[C@H]5C)cc4)CC3)nn12 [AZD5153]; settings: max 1 µM
Summary of the method: as §1

SN-38 = compound: CCc1c2c(nc3ccc(O)cc13)-c1cc3c(c(=O)n1C2)COC(=O)[C@]3(O)CC [SN-38]; settings: max 0.3 µM
Summary of the method: as §1

Lapatinib = compound: CS(=O)(=O)CCNCc1ccc(-c2ccc3ncnc(Nc4ccc(OCc5cccc(F)c5)c(Cl)c4)c3c2)o1 [Lapatinib]; settings: max 10 µM
Summary of the method: as §1

Prexasertib = compound: COc1cccc(OCCCN)c1-c1cc(Nc2cnc(C#N)cn2)n[nH]1 [Prexasertib]; settings: max 1 µM
Summary of the method: as §1

Doxorubicin = compound: COc1cccc2c1C(=O)c1c(O)c3c(c(O)c1C2=O)C[C@@](O)(C(=O)CO)C[C@@H]3O[C@H]1C[C@H](N)[C@H](O)[C@H](C)O1 [Doxorubicin]; settings: max 1 µM
Summary of the method: as §1

AZD7648 = compound: Cc1cc2ncnn2cc1Nc1ncc2c(n1)n(C1CCOCC1)c(=O)n2C [AZD7648]; settings: max 10 µM
Summary of the method: as §1

Venetoclax = compound: CC1(C)CCC(CN2CCN(c3ccc(C(=O)NS(=O)(=O)c4ccc(NCC5CCOCC5)c([N+](=O)[O-])c4)c(Oc4cnc5[nH]ccc5c4)c3)CC2)=C(c2ccc(Cl)cc2)C1 [Venetoclax]; settings: max 1 µM
Summary of the method: as §1

Dasatinib = compound: CC1=C(C(=CC=C1)Cl)NC(=O)C2=CN=C(S2)NC3=CC(=NC(=N3)C)N4CCN(CC4)CCO [Dasatinib]; settings: max 2 µM
Summary of the method: as §1

Crizotinib = compound: C[C@@H](Oc1cc(-c2cnn(C3CCNCC3)c2)cnc1N)c1c(Cl)ccc(F)c1Cl [Crizotinib]; settings: max 10 µM
Summary of the method: as §1

Capivasertib = compound: C1CN(CCC1(C(=O)N[C@@H](CCO)C2=CC=C(C=C2)Cl)N)C3=NC=NC4=C3C=CN4 [Capivasertib]; settings: max 10 µM
Summary of the method: as §1

AZD6738 = compound: C[C@@H]1COCCN1C2=NC(=NC(=C2)C3(CC3)[S@](=N)(=O)C)C4=C5C=CNC5=NC=C4 [AZD6738]; settings: max 10 µM
Summary of the method: as §1

Taselisib = compound: Cc1nc(-c2cn3c(n2)-c2ccc(-c4cnn(C(C)(C)C(N)=O)c4)cc2OCC3)n(C(C)C)n1 [Taselisib]; settings: max 10 µM
Summary of the method: as §1

AZD4320 = compound: CN(CC[C@H](CSC1=CC=CC=C1)NC2=C(C=C(C=C2)S(=O)(=O)NC(=O)C3=CC=C(C=C3)N4CCC(CC4)[C@H](C5=CC=CC=C5C6=CC=C(C=C6)Cl)O)S(=O)(=O)C(F)(F)F)CCO [AZD4320]; settings: max 1 µM
Summary of the method: as §1

AZD0156 = compound: CN(C)CCCOc1ccc(-c2ccc3ncc4c(c3c2)n(C2CCOCC2)c(=O)n4C)cn1 [AZD0156]; settings: max 3 µM
Summary of the method: as §1

Savolitinib = compound: C[C@@H](c1ccc2nccn2c1)n1nnc2ncc(-c3cnn(C)c3)nc21 [Savolitinib]; settings: max 1 µM
Summary of the method: as §1

Selumetinib = compound: Cn1cnc2c(F)c(Nc3ccc(Br)cc3Cl)c(C(=O)NOCCO)cc21 [Selumetinib]; settings: max 10 µM
Summary of the method: as §1

Alisertib = compound: COc1cc(Nc2ncc3c(n2)-c2ccc(Cl)cc2C(c2c(F)cccc2OC)=NC3)ccc1C(=O)O [Alisertib]; settings: max 10 µM
Summary of the method: as §1

SG3199 = compound: CC1=CN2[C@@H](C1)C=NC3=CC(=C(C=C3C2=O)OC)OCCCCCOC4=C(C=C5C(=C4)N=C[C@@H]6CC(=CN6C5=O)C)OC [SG3199]; settings: max 0.001 µM
Summary of the method: as §1

AZD1390 = compound: CC(C)n1c(=O)n(C)c2cnc3cc(F)c(-c4ccc(OCCCN5CCCCC5)nc4)cc3c21 [AZD1390]; settings: max 0.3 µM
Summary of the method: as §1

Trametinib = compound: CC(=O)Nc1cccc(-n2c(=O)n(C3CC3)c(=O)c3c(Nc4ccc(I)cc4F)n(C)c(=O)c(C)c32)c1 [Trametinib]; settings: max 1 µM
Summary of the method: as §1

Palbociclib = compound: CC(=O)c1c(C)c2cnc(Nc3ccc(N4CCNCC4)cn3)nc2n(C2CCCC2)c1=O [Palbociclib]; settings: max 10 µM
Summary of the method: as §1

AZD8186 = compound: C[C@@H](Nc1cc(F)cc(F)c1)c1cc(C(=O)N(C)C)cc2c(=O)cc(N3CCOCC3)oc12 [AZD8186]; settings: max 3 µM
Summary of the method: as §1

AZD1775 = compound: C=CCn1c(=O)c2cnc(Nc3ccc(N4CCN(C)CC4)cc3)nc2n1-c1cccc(C(C)(C)O)n1 [AZD1775]; settings: max 3 µM
Summary of the method: as §1

Olaparib = compound: O=C(c1cc(Cc2n[nH]c(=O)c3ccccc23)ccc1F)N1CCN(C(=O)C2CC2)CC1 [Olaparib]; settings: max 10 µM
Summary of the method: as §1

A101D (Melanoma)
IC50, cell viability 72 h (MK-2206): > 10000 nM | IC50, cell viability 72 h (AZD2811): > 1000 nM | IC50, cell viability 72 h (AZD5991): 198 nM | IC50, cell viability 72 h (Gefitinib): > 10000 nM | IC50, cell viability 72 h (AZD5153): 155 nM | IC50, cell viability 72 h (SN-38): 55.9 nM | IC50, cell viability 72 h (Lapatinib): > 10000 nM | IC50, cell viability 72 h (Prexasertib): 181 nM | IC50, cell viability 72 h (Doxorubicin): 456 nM | IC50, cell viability 72 h (AZD7648): > 10000 nM | IC50, cell viability 72 h (Venetoclax): > 1000 nM | IC50, cell viability 72 h (Dasatinib): > 2000 nM | IC50, cell viability 72 h (Crizotinib): > 10000 nM | IC50, cell viability 72 h (Capivasertib): > 10000 nM | IC50, cell viability 72 h (AZD6738): 4490 nM | IC50, cell viability 72 h (Taselisib): 2710 nM | IC50, cell viability 72 h (AZD4320): > 1000 nM | IC50, cell viability 72 h (AZD0156): > 3000 nM | IC50, cell viability 72 h (Savolitinib): > 1000 nM | IC50, cell viability 72 h (Selumetinib): 3920 nM | IC50, cell viability 72 h (Alisertib): 5360 nM | IC50, cell viability 72 h (SG3199): > 1 nM | IC50, cell viability 72 h (AZD1390): > 300 nM | IC50, cell viability 72 h (Trametinib): 148 nM | IC50, cell viability 72 h (Palbociclib): > 10000 nM | IC50, cell viability 72 h (AZD8186): > 3000 nM | IC50, cell viability 72 h (AZD1775): 687 nM | IC50, cell viability 72 h (Olaparib): > 10000 nM

DMS-53 (Small Cell Lung Carcinoma)
IC50, cell viability 72 h (MK-2206): > 10000 nM | IC50, cell viability 72 h (AZD2811): > 1000 nM | IC50, cell viability 72 h (AZD5991): > 1000 nM | IC50, cell viability 72 h (Gefitinib): > 10000 nM | IC50, cell viability 72 h (AZD5153): > 1000 nM | IC50, cell viability 72 h (SN-38): 37 nM | IC50, cell viability 72 h (Lapatinib): > 10000 nM | IC50, cell viability 72 h (Prexasertib): > 1000 nM | IC50, cell viability 72 h (Doxorubicin): > 1000 nM | IC50, cell viability 72 h (AZD7648): > 10000 nM | IC50, cell viability 72 h (Venetoclax): > 1000 nM | IC50, cell viability 72 h (Dasatinib): > 2000 nM | IC50, cell viability 72 h (Crizotinib): > 10000 nM | IC50, cell viability 72 h (Capivasertib): > 10000 nM | IC50, cell viability 72 h (AZD6738): > 10000 nM | IC50, cell viability 72 h (Taselisib): > 10000 nM | IC50, cell viability 72 h (AZD4320): 174 nM | IC50, cell viability 72 h (AZD0156): > 3000 nM | IC50, cell viability 72 h (Savolitinib): > 1000 nM | IC50, cell viability 72 h (Selumetinib): > 10000 nM | IC50, cell viability 72 h (Alisertib): > 10000 nM | IC50, cell viability 72 h (SG3199): > 1 nM | IC50, cell viability 72 h (AZD1390): > 300 nM | IC50, cell viability 72 h (Trametinib): > 1000 nM | IC50, cell viability 72 h (Palbociclib): > 10000 nM | IC50, cell viability 72 h (AZD8186): > 3000 nM | IC50, cell viability 72 h (AZD1775): > 3000 nM | IC50, cell viability 72 h (Olaparib): > 10000 nM

DU-4475 (Breast Carcinoma)
IC50, cell viability 72 h (MK-2206): > 10000 nM | IC50, cell viability 72 h (AZD2811): > 1000 nM | IC50, cell viability 72 h (AZD5991): > 1000 nM | IC50, cell viability 72 h (Gefitinib): > 10000 nM | IC50, cell viability 72 h (AZD5153): 210 nM | IC50, cell viability 72 h (SN-38): 1.93 nM | IC50, cell viability 72 h (Lapatinib): 6760 nM | IC50, cell viability 72 h (Prexasertib): 86.4 nM | IC50, cell viability 72 h (Doxorubicin): 32.3 nM | IC50, cell viability 72 h (AZD7648): > 10000 nM | IC50, cell viability 72 h (Venetoclax): > 1000 nM | IC50, cell viability 72 h (Dasatinib): > 2000 nM | IC50, cell viability 72 h (Crizotinib): 3780 nM | IC50, cell viability 72 h (Capivasertib): > 10000 nM | IC50, cell viability 72 h (AZD6738): 1700 nM | IC50, cell viability 72 h (Taselisib): > 10000 nM | IC50, cell viability 72 h (AZD4320): 93.5 nM | IC50, cell viability 72 h (AZD0156): > 3000 nM | IC50, cell viability 72 h (Savolitinib): > 1000 nM | IC50, cell viability 72 h (Selumetinib): 55.6 nM | IC50, cell viability 72 h (Alisertib): 543 nM | IC50, cell viability 72 h (SG3199): > 1 nM | IC50, cell viability 72 h (AZD1390): > 300 nM | IC50, cell viability 72 h (Trametinib): 1.18 nM | IC50, cell viability 72 h (Palbociclib): > 10000 nM | IC50, cell viability 72 h (AZD8186): > 3000 nM | IC50, cell viability 72 h (AZD1775): 437 nM | IC50, cell viability 72 h (Olaparib): 5190 nM

— the supplement of paper PMC11061612
